Assay results from article PMC7288171, “Synergistic Effects of Thiosemicarbazides with Clinical Drugs against S. aureus” (Molecules, 2020).
Values after ≈ are worked out from the molar mass of the structure shown. Where two headings read alike, the source gives them in different places.

Columns and labels:
S. aureus DNA gyrase = target: T1, S. aureus DNA gyrase (Staphylococcus aureus, UniProt P0A0K8+P20831); test: Gyrase supercoiling assay; type: biochemical
T1 construct: purchased Inspiralis, Norwich, UK
T1 sequence (P20831 whole entry): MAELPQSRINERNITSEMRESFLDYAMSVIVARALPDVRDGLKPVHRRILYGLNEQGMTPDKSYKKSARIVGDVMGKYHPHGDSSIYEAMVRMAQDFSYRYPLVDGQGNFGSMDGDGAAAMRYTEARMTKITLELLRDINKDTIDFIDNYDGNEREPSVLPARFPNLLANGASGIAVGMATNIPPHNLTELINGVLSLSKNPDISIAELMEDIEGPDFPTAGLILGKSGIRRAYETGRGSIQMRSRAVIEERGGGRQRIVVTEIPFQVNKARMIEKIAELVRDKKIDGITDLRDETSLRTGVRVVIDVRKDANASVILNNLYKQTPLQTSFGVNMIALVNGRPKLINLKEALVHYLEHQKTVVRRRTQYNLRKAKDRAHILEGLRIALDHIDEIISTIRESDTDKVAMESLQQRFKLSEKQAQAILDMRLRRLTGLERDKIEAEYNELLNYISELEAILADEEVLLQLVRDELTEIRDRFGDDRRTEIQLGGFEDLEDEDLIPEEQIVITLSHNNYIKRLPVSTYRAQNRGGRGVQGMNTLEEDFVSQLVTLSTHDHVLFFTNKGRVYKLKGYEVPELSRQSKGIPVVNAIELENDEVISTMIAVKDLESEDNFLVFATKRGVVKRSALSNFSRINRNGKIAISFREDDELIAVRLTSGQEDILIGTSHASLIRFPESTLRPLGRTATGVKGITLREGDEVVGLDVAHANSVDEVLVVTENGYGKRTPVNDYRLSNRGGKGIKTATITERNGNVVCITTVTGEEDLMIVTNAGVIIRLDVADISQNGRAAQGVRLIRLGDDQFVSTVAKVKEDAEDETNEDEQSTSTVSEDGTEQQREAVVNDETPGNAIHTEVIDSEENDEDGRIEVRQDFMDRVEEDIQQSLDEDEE
T1 sequence (P0A0K8 whole entry): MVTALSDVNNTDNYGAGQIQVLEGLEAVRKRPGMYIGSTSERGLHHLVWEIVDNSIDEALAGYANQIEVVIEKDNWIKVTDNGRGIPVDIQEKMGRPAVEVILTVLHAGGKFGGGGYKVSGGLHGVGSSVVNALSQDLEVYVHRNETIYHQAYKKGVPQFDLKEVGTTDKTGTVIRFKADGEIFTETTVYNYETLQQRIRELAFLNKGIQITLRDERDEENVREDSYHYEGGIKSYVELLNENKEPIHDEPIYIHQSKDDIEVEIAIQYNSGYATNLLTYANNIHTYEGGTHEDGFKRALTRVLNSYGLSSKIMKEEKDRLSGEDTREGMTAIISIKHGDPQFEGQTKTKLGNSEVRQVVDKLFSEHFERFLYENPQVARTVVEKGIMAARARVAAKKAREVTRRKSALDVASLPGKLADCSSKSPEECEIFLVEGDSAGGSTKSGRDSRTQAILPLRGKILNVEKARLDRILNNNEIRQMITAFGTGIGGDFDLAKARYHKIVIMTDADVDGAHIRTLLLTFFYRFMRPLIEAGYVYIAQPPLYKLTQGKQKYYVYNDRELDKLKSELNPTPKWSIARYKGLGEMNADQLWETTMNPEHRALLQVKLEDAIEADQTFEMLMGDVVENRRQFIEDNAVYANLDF
Protocol: Supercoiling assay: The assays were performed using S. aureus Gyrase Supercoiling Assay Kits (Inspiralis, Norwich, UK). Briefly, […] pBR322 plasmid DNA (0.5 µg) was incubated with 1 unit of gyrase, in the dedicated supercoiling assay buffer supplied by the manufacturer, in the presence of varying concentrations of the test compounds. Reactions were carried out at 37 °C for 1 h and then terminated by the addition of equal volume of 2 × STOP Buffer (40% sucrose, 100 mM Tris-Cl pH 7.5, 1 mM EDTA, and 0.5 mg/mL bromophenol blue) and chloroform/iso-amyl alcohol. Samples were vortexed, centrifuged, and run through a 15 cm 1% agarose gel in TAE buffer (40 mM Tris-acetate, 2 mM EDTA) for 3 h at 50 V. Gels were stained with ethidium bromide and visualized under UV light.

MRSA-1 = test: MIC, clinical isolate of S. aureus; type: cell-based; details: Staphylococcus aureus; clinical isolate MRSA-1; read-out: MIC
Protocol: (§1) The antibacterial activity of the thiosemicarbazides 1–9 and antibiotics (amoxicillin, gentamicin, levofloxacin, linezolid, and vancomycin) was tested on the Gram-positive strains (Microbiologics, St. Cloud, MN, USA) (S. aureus ATCC 25923, S. aureus ATCC 6538, S. epidermidis ATCC 12228, B. subtilis ATCC 6633, B. cereus ATCC 10876, M. luteus ATCC 10240), the Gram-negative strains (Microbiologics, St. Cloud, MN, USA) (E. coli ATCC 25922, K. pneumoniae ATCC 13883, P. mirabilis ATCC 12453, P. aeruginosa ATCC 9027), and clinical isolates of S. aureus (Medical University of Lublin, Lublin, Poland) (MSSA-1, MSSA-2, MSSA-3, MSSA-4, MRSA-1).

MSSA-2 = test: MIC, clinical isolate of S. aureus; type: cell-based; details: Staphylococcus aureus; clinical isolate MSSA-2; read-out: MIC
Protocol: as §1

MSSA-1 = test: MIC, clinical isolate of S. aureus; type: cell-based; details: Staphylococcus aureus; clinical isolate MSSA-1; read-out: MIC
Protocol: as §1

MSSA-4 = test: MIC, clinical isolate of S. aureus; type: cell-based; details: Staphylococcus aureus; clinical isolate MSSA-4; read-out: MIC
Protocol: as §1

MSSA-3 = test: MIC, clinical isolate of S. aureus; type: cell-based; details: Staphylococcus aureus; clinical isolate MSSA-3; read-out: MIC
Protocol: as §1

B. subtilis ATCC 6633 = test: MIC, broth microdilution; type: cell-based; details: Bacillus subtilis, ATCC6633; B. s. ATCC 6633; compounds 6–9 and antibiotics; read-out: MIC
Protocol: as §1

[1] = tested on: S. epidermidis ATCC 12228; test: MIC, broth microdilution; type: cell-based; details: Staphylococcus epidermidis, ATCC12228; S. e. ATCC 12228; compounds 6–9 and antibiotics; read-out: MIC
Protocol: as §1

S. aureus ATCC 6538 = test: MIC, broth microdilution; type: cell-based; details: Staphylococcus aureus, ATCC6538; S. a. ATCC 6538; compounds 6–9 and antibiotics; read-out: MIC
Protocol: as §1

S. aureus ATCC 25923 [2] = test: MIC, broth microdilution; type: cell-based; details: Staphylococcus aureus, ATCC25923; S. a. ATCC 25923; compounds 6–9 and antibiotics; read-out: MIC
Protocol: as §1

M. luteus ATCC 10240 = test: MIC, broth microdilution; type: cell-based; details: Micrococcus luteus, ATCC10240; M. l. ATCC 10240; compounds 6–9 and antibiotics; read-out: MIC
Protocol: as §1

B. cereus ATCC 10876 = test: MIC, broth microdilution; type: cell-based; details: Bacillus cereus, ATCC10876; B. c. ATCC 10876; compounds 6–9 and antibiotics; read-out: MIC
Protocol: as §1

[3] = tested on: human foreskin fibroblast Hs27 cells (CRL-1634); test: MTT cytotoxicity assay; type: cell-based; details: Homo sapiens, 24 h of treatment
Protocol: (§2) A critical factor in research and development of new antibacterial agents is their abilities to selectively target bacterial cells without toxicity to mammalian cells. Thus, in order to test if antibacterial activity of title thiosemicarbazides is not due to their general toxicity, their effect on mammalian cell viability was assessed using human foreskin fibroblast Hs27 cells (CRL-1634) via MTT assay.
(§3) Cytotoxic properties of the compounds were evaluated using human foreskin fibroblast cells Hs27 (ATCC CRL-1634) (ATCC, Manassas, VA, USA) that were cultured in DMEM-high glucose (Sigma Aldrich, St. Louis, MO, USA). Medium was supplemented with 10% fetal bovine serum (FBS, Sigma Aldrich), 100 U/mL of penicillin, and […] of streptomycin (PenStrep, Sigma Aldrich, St. Louis, MO, USA). Cells were incubated at 37 °C in a humidified atmosphere of 5% CO2. Stock solutions of the tested compounds were prepared dissolving in a sterile dimethyl sulfoxide (DMSO) to the concentration of 50 mg/mL. The cells were seeded into 96-well sterile plates (Nunc) at a cell density of 1 × 10^5 cells/mL. After 24 h of incubation, the medium was removed from each well, and then cells were incubated for the next 24 h with tested compounds (in a fixed dose of 25 µg/mL) in DMEM-high glucose containing 2% FBS. Control cells were cultured only with medium containing 2% addition of FBS. Cytotoxicity of the compounds was evaluated using MTT assay, which is based on the conversion of 3-(4,5-dimethylthiazol-2-yl)-2,5- diphenyltetrazolium bromide (MTT) into dark-blue formazan crystals. Briefly, after 24-h incubation of cells with varying concentrations of the tested compounds, culture medium was removed from the plates. Cells were washed with PBS, and then 100 µL of medium containing 10% MTT solution (5 mg/mL) was added to each well. Cells were incubated for the next 3 h at 37 °C in an atmosphere of 5% CO2. Next, 100 µL (per well) of 10% sodium dodecyl sulfate (SDS) buffer solution was added to dissolve formazan crystals and after an overnight incubation the absorbance was measured at 570 nm using a microplate reader (Epoch, BioTek Instruments, Inc., Winooski, VT, USA).

MTT cytotoxicity assay = type: cell-based, human; details: human, Hs27 foreskin fibroblast cells (ATCC CRL-1634), 25 µg/mL, 24 h, vehicle control = 100%
Protocol: as §2, §3

S. aureus ATCC 25923 [4] = test: Checkerboard broth dilution synergy assay; type: cell-based
Protocol: The microdilution checkerboard method was used to evaluate the synergistic effects between the thiosemicarbazides 1–9 and antibiotics, which were determined as the fractional inhibitory concentration indices (FICIs). For these experiments, amoxicillin, gentamicin, levofloxacin, linezolid, and vancomycin were selected to represent the five antimicrobial classes most commonly used in clinical practice. In this way, a total of 45 combinations of thiosemicarbazide-amoxicillin, thiosemicarbazide-gentamicin, thiosemicarbazide-levofloxacin, thiosemicarbazide-linezolid, and thiosemicarbazide-vancomycin against S. aureus ATCC 25923 were tested to identify in vitro synergy effects.
Interaction of the thiosemicarbazides 1–9 in combination with amoxicillin, gentamicin, levofloxacin, linezolid or vancomycin against S. aureus ATCC 25923 were analyzed using the checkerboard broth dilution method to determine the fractional inhibitory concentration indices (FICIs), calculated as: FIC = MIC of drug A in combination/MIC of drug A alone + MIC of drug B in combination/MIC of drug B alone. The calculated FICIs were interpreted as synergistic (FIC ≤ 0.5), additive (0.5 < FIC < 1), indifferent (1 ≤ FIC < 4.0), or antagonistic (FIC ≥ 4.0). The checkerboard assay included ciprofloxacin-carvedilol combination as positive control, whereas cefuroxime in combination with 4-(4-bromophenyl)-1-(3-fluorobezoyl)thiosemicarbazide served as negative control. The Z-factor value for the bioassay was 0.683.

Row | Structure (SMILES) | MIC (MRSA-1) | MIC (MSSA-2) | MIC (MSSA-1) | MIC (MSSA-4) | MIC (MSSA-3) | MIC (B. subtilis ATCC 6633) | MIC [1] | MIC (S. aureus ATCC 6538) | MIC (S. aureus ATCC 25923 [2]) | MIC (M. luteus ATCC 10240) | MIC (B. cereus ATCC 10876) | IC50 [3] | viability at 24 h, 25 µg/mL (MTT cytotoxicity assay) | other results
1 | C[C@H]1COc2c(N3CCN(C)CC3)c(F)cc3c(=O)c(C(=O)O)cn1c23 [LEV, levofloxacin, reference compound] | 31.2 µg/mL (≈ 86.5 µM) | 0.24 µg/mL (≈ 0.664 µM) | 0.12 µg/mL (≈ 0.332 µM) | 0.12 µg/mL (≈ 0.332 µM) | 0.12 µg/mL (≈ 0.332 µM) | 0.12 µg/mL (≈ 0.332 µM) | 0.12 µg/mL (≈ 0.332 µM) | 0.24 µg/mL (≈ 0.664 µM) | 0.24 µg/mL (≈ 0.664 µM) | 0.98 µg/mL (≈ 2.71 µM) | 0.12 µg/mL (≈ 0.332 µM) | > 25 µg/mL | 101% | inhibition at 100 µM (S. aureus DNA gyrase; 100 µM, read-out: S. aureus Gyrase DNA Inhibition (%) ± SD): 92.4 ± 3.74%
2 | O=C(NNC(=S)Nc1ccc(Cl)cc1)c1ccccc1F [compound 6, 4-(4-chlorophenyl)-1-(2-fluorobenzoyl)thiosemicarbazide] | 500 µg/mL (≈ 1540 µM) | > 500 µg/mL | 250 µg/mL (≈ 772 µM) | 125 µg/mL (≈ 386 µM) | 250 µg/mL (≈ 772 µM) | 500 µg/mL (≈ 1540 µM) | 250 µg/mL (≈ 772 µM) | 250 µg/mL (≈ 772 µM) | 500 µg/mL (≈ 1540 µM) | 7.82 µg/mL (≈ 24.2 µM) | 31.2 µg/mL (≈ 96.5 µM) | > 25 µg/mL | 96.8% | interaction in combination (S. aureus ATCC 25923 [4]; combination with amoxicillin): additive; interaction in combination (S. aureus ATCC 25923 [4]; combination with gentamicin): synergistic; interaction in combination (S. aureus ATCC 25923 [4]; combination with levofloxacin): additive; interaction in combination (S. aureus ATCC 25923 [4]; combination with linezolid): synergistic; interaction in combination (S. aureus ATCC 25923 [4]; combination with vancomycin): additive; inhibition at 50 µM (S. aureus DNA gyrase; 50 µM, read-out: S. aureus Gyrase DNA Inhibition (%) ± SD): 30.8 ± 3.19%; S. aureus Gyrase DNA Inhibition (%) ± SD (S. aureus DNA gyrase; 100 µM): 49.22 ± 3.18%; inhibition at 100 µM (S. aureus DNA gyrase; read-out: S. aureus Gyrase DNA Inhibition (%) ± SD, 100 µM): ~50%
3 | CC1(C)S[C@@H]2[C@H](NC(=O)[C@H](N)c3ccc(O)cc3)C(=O)N2[C@H]1C(=O)O [AMX, amoxicillin, reference compound] | 31.2 µg/mL (≈ 85.5 µM) | 0.12 µg/mL (≈ 0.328 µM) | 1.95 µg/mL (≈ 5.34 µM) | 31.2 µg/mL (≈ 85.5 µM) | 0.98 µg/mL (≈ 2.68 µM) | 0.12 µg/mL (≈ 0.328 µM) | 7.81 µg/mL (≈ 21.4 µM) | 0.12 µg/mL (≈ 0.328 µM) | 0.12 µg/mL (≈ 0.328 µM) | 0.24 µg/mL (≈ 0.657 µM) | > 250 µg/mL | – | – | –
